Data set [1] can be described thus: concentration in blood after subcutaneous injection (serum concentration by HPLC). Type of data set: in vivo. The conditions noted are these: sc, ICR mice, male, 0.5 mg per mouse subcutaneous; for Cmax: 4 weeks old, serum by HPLC, read-out: Maximum concentration in blood; for half-life / AUC: serum, Gauss-Newton method; for half-life: read-out: Half-life period (converted); for AUC: sampling 5 minutes to 2 hours, read-out: AUC (area under the plasma concentration-time curve). As to the method: This test example illustrates that the following typical examples of the compound of the present invention can give and maintain their concentrations in blood at high levels after subcutaneous injection. Test Compounds:
The test was carried out in the following manner. Using five male mice of ICR line (4 weeks old, 1 individual/group for blood collection), 0.5 mg of each test compound dissolved in 0.2 ml of sterile water for injection use was administered to each mouse by subcutaneous injection. Blood collection was carried out after 5 minutes, 15 minutes, 30 minutes, 1 hour and 2 hours after the administration. Each of the thus collected blood samples was subjected to ordinary post-treatment, and then serum concentration of the cephem compound was measured by making use of HPLC. Half-life period and AUC (area under the plasma concentration-time curve) as pharmacokinetic parameters were calculated in accordance with the Gauss-Newton method.

In another data set the test system is P. vulgaris GN 76. Briefly: minimum growth inhibitory concentration, ordinary serial dilution technique. Type of data set: cell-based. The following applies: Proteus vulgaris, GN76, 10^6 CFU/ml, 35° C., 18 to 20 hours. As to the method: (§1) In this test example, antibacterial activities of the following typical examples of the compound (I) of the present invention upon various bacterial species are illustrated by showing their minimum growth inhibitory concentrations measured by the ordinary serial dilution technique. The measurement was made by inoculating 10^6 CFU/ml of each test strain on a Sensitivity Plate Medium N (Nissui Pharmaceutical Co., Ltd.) and culturing the inoculated cells at 35° C. for 18 to 20 hours.

Another data set concerns M. morganii 1510/S-l. The data set is described as above. Type of data set: cell-based. The conditions noted are these: Morganella morganii, 1510/SL, 10^6 CFU/ml, 35° C., 18 to 20 hours. As to the method: as §1
Another data set relates to K. pneumoniae PCI 602. The data set is described as above. Type of data set: cell-based. The conditions noted are these: Klebsiella pneumoniae, PCI602, 10^6 CFU/ml, 35° C., 18 to 20 hours. Here is the method:
as §1

The subject of another data set is Sta. aureus 209P JC-1. Described as above. The following applies: Staphylococcus aureus, 10^6 CFU/ml, Sensitivity Plate Medium N, 35° C., 18 to 20 hours. Type of data set: cell-based. As to the method:
as §1

Data set [2] concerns Sta. epidermidis ATCC 14990. The description is as above. Type of data set: cell-based. The conditions noted are these: Staphylococcus epidermidis, ATCC14990, 10^6 CFU/ml, 35° C., 18 to 20 hours. Here is the method: as §1
The subject of a further data set is E. coli NIHJ JC-2. The data set is described as above. Type of data set: cell-based. The conditions noted are these: Escherichia coli, NIHJJC2, 10^6 CFU/ml, 35° C., 18 to 20 hours. As to the method: as §1
Data set [3] is described as follows: acute toxicity (LD50) i.v. in mice. The following applies: mouse, in vivo, iv.
For data set [4], the system named is Sta. aureus M 133 (methicillin-resistant). Kind of data set: minimum growth inhibitory concentration, ordinary serial dilution technique. Type of data set: cell-based. The following applies: Staphylococcus aureus, 10^6 CFU/ml, 35° C., 18 to 20 hours. As to the method: (§2) In this test example, antibacterial activities of the following typical examples of the compound (I) of the present invention upon various bacterial species are illustrated by showing their minimum growth inhibitory concentrations measured by the ordinary serial dilution technique. The measurement was made by inoculating 10^6 CFU/ml of each test strain on a Sensitivity Plate Medium N (Nissui Pharmaceutical Co., Ltd.) and culturing the inoculated cells at 35° C. for 18 to 20 hours. Test Compounds:
(§3) Note: (*), methicillinresistant Staphylococcus aureus

The test system of data set [5] is Sta. aureus M 126 (methicillin-resistant). Described as above. Type of data set: cell-based. The conditions noted are these: Staphylococcus aureus, 10^6 CFU/ml, 35° C., 18 to 20 hours. Here is the method:
as §2, §3

Converted amounts (≈) assume the structure as drawn.

This is an account of results in patent US5607927A, “Cephalosporin derivative” (Meiji Seika Kaisha, Ltd., priority 1992, dated 1997).

As usually defined, the half-life is the time in which the quantity being followed falls by half. One may read the MIC as the lowest concentration found to suppress growth. A high value points to a need for much substance. Usually LD50 stands for the dose expected to kill half of the subjects tested. Lower therefore signals greater toxicity.

Consider `CO/N=C(\C(=O)NC1C(=O)N2C(C(=O)O)=C(Sc3nc4ccccc4o3)CSC12)c1csc(N)n1` (centres unmarked) [Compound C, 7-{(Z)-2-(2-aminothiazol-4-yl)-2-methoxy-iminoacetamido}-3-(benzoxazol-2-yl)thio-3-cephem-4-carboxylic acid], for which, in data set [1], the Cmax stood at 141 µg/mL, the half-life is 2.1 h and the AUC was found to be 442 µg·h/mL.
Consider `CO/N=C(\C(=O)NC1C(=O)N2C(C(=O)O)=C(Sc3nc4ccccc4s3)CS[C@H]12)c1nsc(N)n1` (some centres unmarked) [Compound A, 7-{(Z)-2-(5-amino-1,2,4-thiadiazol-3-yl)-2-methoxyiminoacetamido}-3-(benzothiazol-2-yl)thio-3-cephem-4-carboxylic acid], for which the minimum inhibitory concentration (MIC) was 3.13 µg/mL (≈ 5.69 µM) in the data set on P. vulgaris GN 76; 1.56 µg/mL (≈ 2.84 µM) with M. morganii 1510/S-l; 3.13 µg/mL (≈ 5.69 µM) in the data set with K. pneumoniae PCI 602; 0.39 µg/mL (≈ 0.71 µM) in the data set with Sta. aureus 209P JC-1; 0.39 µg/mL (≈ 0.71 µM) in [2]; 3.13 µg/mL (≈ 5.69 µM) with E. coli NIHJ JC-2. In addition, the minimum inhibitory concentration (MIC) came out at 1.56 µg/mL (≈ 2.84 µM) in [4] and 3.13 µg/mL (≈ 5.69 µM) in [5]. Also, the Cmax in data set [1] turned out to be 126 µg/mL. In addition, the half-life in data set [1] was 1.8 h. In data set [1], the AUC amounted to 343 µg·h/mL. This compound also returned a median lethal dose (LD50) in data set [3] of 1000 to 1500 mg/kg.
Take `CO/N=C(\C(=O)NC1C(=O)N2C(C(=O)O)=C(Sc3nc4cccnc4s3)CS[C@H]12)c1nsc(N)n1` (some centres unmarked) [Compound B, 7-{(Z)-2-(5-amino-1,2,4-thiadiazol-3-yl)-2-methoxyiminoacetamido}-3-(thiazolo[5,4-b]pyridin-2-yl)thio-3-cephem-4-carboxylic acid]: the MIC in the data set with P. vulgaris GN 76 came out at 12.5 µg/mL (≈ 22.7 µM); in the data set with M. morganii 1510/S-l it was 50 µg/mL (≈ 90.8 µM); with K. pneumoniae PCI 602, 3.13 µg/mL (≈ 5.68 µM); in the data set with Sta. aureus 209P JC-1, 0.78 µg/mL (≈ 1.42 µM); in data set [2] it was 0.39 µg/mL (≈ 0.708 µM); against E. coli NIHJ JC-2, 3.13 µg/mL (≈ 5.68 µM). Further, the values for the MIC in data set [4] and in [5] were 3.13 µg/mL (≈ 5.68 µM) and 12.5 µg/mL (≈ 22.7 µM), respectively. Besides, the Cmax in data set [1] was 110 µg/mL. The half-life in data set [1] was 1.3 h. The AUC in data set [1] came out at 230 µg·h/mL.
